In US20220117938A1, “COMBINATON THERAPY WITH A DON PRODRUG AND AN IMMUNE CHECKPOINT INHIBITOR” (DRACEN PHARMACEUTICALS, INC., priority 2019, published 2022):

System: MC-38 tumors
Assay: Anti-tumor efficacy of Compound 1 in the subcutaneous MC-38 model: schedule comparison (Example 3)
Type: in vivo, Mus musculus
Conditions: for MST: endpoint tumor volume 2000 mm^3
Description: Female C57BL/6 mice were inoculated subcutaneously at right flank with MC-38 cells for tumor development. Six days after tumor inoculation, 64 mice with tumor size ranging from 50-100 mm^3 (average tumor size 71 mm^3) were selected and assigned into 8 groups using stratified randomization with 8 mice per group based upon their tumor volumes. The treatments were started from the day of randomization (defined as D0), Group 1 was treated with Vehicle (Tween 80:Ethanol:Saline—5:5:90 v/v/v), S.C. QD*20 days, Group 2 was treated with Compound 1 at 1 mpk S.C. QD*28 days, Group 3 was treated with Compound 1 at 0.5 mpk S.C. QD*28 days, Group 4 was treated with Compound 1 at 1.4 mpk S.C. 5-days ON 2-days OFF×4 cycles, Group 5 was treated with Compound 1 at 0.7 mpk S.C. 5-days ON 2-days OFF×4 cycles, Group 6 was treated with Compound 1 at 3 mpk qd×5, followed by 1 mpk qd×23, S.C. QD, Group 7 was treated with Compound 1 at 1.5 mpk qd×5, followed by 0.5 mpk qd×23, S.C. QD and Group 8 was treated with Compound 1 at 1.4 mpk 10-days ON 4-days OFF×2 cycles, S.C.
Species: Mus musculus; Strain: C57BL/6; Age: 6-8 weeks; Sex: female; Body weight (at treatment start): 16-20 g.
The MC-38 tumor cells were maintained in vitro as a monolayer culture in DMEM medium supplemented with 10% heat inactivated fetal bovine serum and 100 μg/mL penicillin streptomycin at 37° C. in an atmosphere of 5% CO2 in air. The tumor cells were routinely subcultured twice weekly by trypsin-EDTA treatment. The cells growing to a confluency around 70%-80% were harvested and counted for tumor inoculation. The cultured MC-38 were harvested, re-suspended in base medium at a density of 1×10^7 cells/mL with viability>90%. Each mouse was inoculated subcutaneously at the right flank with 1×10^6 cells in 0.1 ml base medium for tumor development.
The treatments were started on day 6 after tumor inoculation when the tumor size reached 50-100 mm^3 (average tumor size 71 mm^3). Each group consisted of 8 tumor-bearing mice. The testing article was administrated to the mice at a dosing volume of 10 mL/Kg according to the predetermined regimen as shown in Table 3-1.
Tumor sizes were measured three times a week in two dimensions using a caliper, and the volume expressed in mm^3 using the formula: V=0.5 a×b^2 where a and b are the long and short diameters of the tumor, respectively. The tumor sizes were then used for the calculations of both tumor growth inhibition (TGI) and T/C values.
TGI is calculated for each group using the formula: […]
TVTreatment_DayN is the average tumor volume of a treatment group on a given day, TVTreatment_Day0 is the average tumor volume of the treatment group on the first day of treatment, TVVehicle_DayN is the average tumor volume of the vehicle control group on a given day, and TVVehicle_Day0 is the average tumor volume of the vehicle group on the first day of treatment.
The T/C value (in percent) is an indication of antitumor effectiveness, T/C (%)=RTVTreatment/RTVControl×100% (RTVTreatment: the mean RTV of the treatment group; RTVControl: the mean RTV of the vehicle treated group). RTV (relative tumor volume)=TVDayN/TVDay0. TVDayN and TVDay0 is the tumor volume on day N and Day 0 respectively. T/C (%)≤42% is considered as significant antitumor activity and <10% is considered as highly significant antitumor activity by the National Cancer Institute criteria.
Relative change of body weight (RCBW) of each mouse was calculated according to the following formula: […]
Animal survival curve: When an individual animal reached to the termination endpoint (TV>2000 mm^3), the mouse was euthanized. The time from treatment initiation to the termination was deemed as its survival time. Survival curve was plotted by Kaplan-Meier method. Median survival time (MST) was calculated for each group. Increase of life span (ILS) was calculated according to the following formula: […]
ILS (%)>25% is considered as a biologically significant survival benefit. […]

[1] = 0.7 mpk S.C. 5-days ON 2-days OFF
[2] = 1.4 mpk days ON 2-days OFF x 4 cycles
[3] = 1.5 mpk qdx5, followed by 0.5 mpk qdx23
[4] = 3 mpk qdx5, followed by 1 mpk qdx23
[5] = Day 13, 0.7 mpk S.C. 5-days ON 2-days OFF
[6] = Day 13, 1.4 mpk 10-days ON 4-days OFF
[7] = Day 13, 1.4 mpk days ON 2-days OFF x 4 cycles
[8] = Day 13, 1.5 mpk qdx5, followed by 0.5 mpk qdx23
[9] = Day 13, 3 mpk qdx5, followed by 1 mpk qdx23

Q: With `CC(=O)N[C@@H](Cc1c[nH]c2ccccc12)C(=O)N[C@@H](CCC(=O)C=[N+]=[N-])C(=O)OC(C)C` [Compound 1, Isopropyl (S)-2-((S)-2-acetamido-3-(1H-indol-3-yl)propanamido)-6-diazo-5-oxohexanoate] as the molecule, how does the ILS (0.5 mpk QD*28 days) read?
A: 126%

Q: What about the “RTV at day 13” value (0.5 mpk QD*28 days) of the same molecule?
A: 0 ± 0

Q: What about the MST (0.5 mpk QD*28 days) of the same molecule?
A: 43 days

Q: And the ILS [1]?
A: 208%

Q: And the “RTV at day 13” value [1]?
A: 0 ± 0

Q: What about the MST [1] of the same molecule?
A: 58.5 days

Q: What about the ILS (1 mpk QD*28 days) of the same molecule?
A: 126%

Q: And the “RTV at day 13” value (1 mpk QD*28 days)?
A: 0 ± 0

Q: And the MST (1 mpk QD*28 days)?
A: 43 days

Q: And the ILS (1.4 mpk 10-days ON 4-days OFF)?
A: 121%

Q: What about the “RTV at day 13” value (1.4 mpk 10-days ON 4-days OFF) of the same molecule?
A: 0 ± 0

Q: What about the MST (1.4 mpk 10-days ON 4-days OFF) of the same molecule?
A: 42 days

Q: What about the ILS [2] of the same molecule?
A: 153%

Q: What about the “RTV at day 13” value [2] of the same molecule?
A: 0 ± 0

Q: And the MST [2]?
A: 48 days

Q: What about the ILS [3] of the same molecule?
A: 121%

Q: What about the “RTV at day 13” value [3] of the same molecule?
A: 0 ± 0

Q: And the MST [3]?
A: 42 days

Q: And the ILS [4]?
A: 134%

Q: And the “RTV at day 13” value [4]?
A: 0 ± 0

Q: What about the MST [4] of the same molecule?
A: 44.5 days

Q: What about the “Tumor volume (Mean ± SEM)” value (Day 11, Group 2: 1 mg/kg qdx28, sc) of the same molecule?
A: 15 ± 3 mm^3

Q: And the “Tumor volume (Mean ± SEM)” value (Day 11, Group 3: 0.5 mg/kg qdx28, sc)?
A: 29 ± 3 mm^3

Q: What about the “Tumor volume (Mean ± SEM)” value (Day 11, Group 4: 1.4 mg/kg 5-days ON 2-days OFF x 4 cycles, sc) of the same molecule?
A: 14 ± 2 mm^3

Q: What about the “Tumor volume (Mean ± SEM)” value (Day 11, Group 5: 0.7 mg/kg 5-days ON 2-days OFF x 4 cycles, sc) of the same molecule?
A: 20 ± 4 mm^3

Q: And the “Tumor volume (Mean ± SEM)” value (Day 11, Group 6: 3 mpk qdx5 followed by 1 mpk qdx23, sc)?
A: 24 ± 2 mm^3

Q: What about the “Tumor volume (Mean ± SEM)” value (Day 11, Group 7: 1.5 mpk qdx5 followed by 0.5 mpk qdx23, sc) of the same molecule?
A: 21 ± 2 mm^3

Q: What about the “Tumor volume (Mean ± SEM)” value (Day 11, Group 8: 1.4 mg/kg 10-days ON 4-days OFF x 2 cycles, sc) of the same molecule?
A: 28 ± 4 mm^3

Q: And the T/C (Day 13, 0.5 mpk QD*28 days)?
A: 0%

Q: And the TGI (Day 13, 0.5 mpk QD*28 days)?
A: 103.48%

Q: What about the T/C [5] of the same molecule?
A: 0%

Q: And the TGI [5]?
A: 104.42%

Q: What about the T/C (Day 13, 1 mpk QD*28 days) of the same molecule?
A: 0%

Q: And the TGI (Day 13, 1 mpk QD*28 days)?
A: 104.87%

Q: What about the T/C [6] of the same molecule?
A: 0%

Q: And the TGI [6]?
A: 104.10%

Q: And the T/C [7]?
A: 0%

Q: And the TGI [7]?
A: 104.49%

Q: What about the T/C [8] of the same molecule?
A: 0%

Q: What about the TGI [8] of the same molecule?
A: 104.24%

Q: What about the T/C [9] of the same molecule?
A: 0%

Q: And the TGI [9]?
A: 104.29%

Q: What about the “Tumor volume (Mean ± SEM)” value (Day 13, Group 2: 1 mg/kg qdx28, sc, 1 mg/kg) of the same molecule?
A: 5 ± 2 mm^3

Q: What about the “Tumor volume (Mean ± SEM)” value (Day 13, Group 3: 0.5 mg/kg qdx28, sc, 0.5 mg/kg) of the same molecule?
A: 24 ± 2 mm^3

Q: What about the “Tumor volume (Mean ± SEM)” value (Day 13, Group 4: 1.4 mg/kg 5-days ON 2-days OFF x 4 cycles, sc, 1.4 mg/kg) of the same molecule?
A: 11 ± 3 mm^3

Q: What about the “Tumor volume (Mean ± SEM)” value (Day 13, Group 5: 0.7 mg/kg 5-days ON 2-days OFF x 4 cycles, sc, 0.7 mg/kg) of the same molecule?
A: 13 ± 4 mm^3

Q: And the “Tumor volume (Mean ± SEM)” value (Day 13, Group 6: 3 mpk qdx5 followed by 1 mpk qdx23, sc)?
A: 14 ± 3 mm^3

Q: What about the “Tumor volume (Mean ± SEM)” value (Day 13, Group 7: 1.5 mpk qdx5 followed by 0.5 mpk qdx23, sc) of the same molecule?
A: 15 ± 3 mm^3

Q: And the “Tumor volume (Mean ± SEM)” value (Day 13, Group 8: 1.4 mg/kg 10-days ON 4-days OFF x 2 cycles, sc, 1.4 mg/kg)?
A: 17 ± 4 mm^3

Q: And the “Tumor volume (Mean ± SEM)” value (Day 15, Group 2: 1 mg/kg qdx28, sc)?
A: 1 ± 1 mm^3

Q: And the “Tumor volume (Mean ± SEM)” value (Day 15, Group 3: 0.5 mg/kg qdx28, sc)?
A: 17 ± 3 mm^3

Q: What about the “Tumor volume (Mean ± SEM)” value (Day 15, Group 4: 1.4 mg/kg 5-days ON 2-days OFF x 4 cycles, sc) of the same molecule?
A: 2 ± 1 mm^3

Q: And the “Tumor volume (Mean ± SEM)” value (Day 15, Group 5: 0.7 mg/kg 5-days ON 2-days OFF x 4 cycles, sc)?
A: 6 ± 3 mm^3

Q: What about the “Tumor volume (Mean ± SEM)” value (Day 15, Group 6: 3 mpk qdx5 followed by 1 mpk qdx23, sc) of the same molecule?
A: 6 ± 2 mm^3

Q: What about the “Tumor volume (Mean ± SEM)” value (Day 15, Group 7: 1.5 mpk qdx5 followed by 0.5 mpk qdx23, sc) of the same molecule?
A: 9 ± 2 mm^3

Q: What about the “Tumor volume (Mean ± SEM)” value (Day 15, Group 8: 1.4 mg/kg 10-days ON 4-days OFF x 2 cycles, sc) of the same molecule?
A: 14 ± 3 mm^3

Q: And the “Tumor volume (Mean ± SEM)” value (Day 18, Group 2: 1 mg/kg qdx28, sc)?
A: 1 ± 0 mm^3

Q: And the “Tumor volume (Mean ± SEM)” value (Day 18, Group 3: 0.5 mg/kg qdx28, sc)?
A: 10 ± 2 mm^3

Q: And the “Tumor volume (Mean ± SEM)” value (Day 18, Group 4: 1.4 mg/kg 5-days ON 2-days OFF x 4 cycles, sc)?
A: 0 ± 0 mm^3

Q: What about the “Tumor volume (Mean ± SEM)” value (Day 18, Group 5: 0.7 mg/kg 5-days ON 2-days OFF x 4 cycles, sc) of the same molecule?
A: 3 ± 1 mm^3

Q: And the “Tumor volume (Mean ± SEM)” value (Day 18, Group 6: 3 mpk qdx5 followed by 1 mpk qdx23, sc)?
A: 7 ± 3 mm^3

Q: What about the “Tumor volume (Mean ± SEM)” value (Day 18, Group 7: 1.5 mpk qdx5 followed by 0.5 mpk qdx23, sc) of the same molecule?
A: 8 ± 2 mm^3

Q: What about the “Tumor volume (Mean ± SEM)” value (Day 18, Group 8: 1.4 mg/kg 10-days ON 4-days OFF x 2 cycles, sc) of the same molecule?
A: 8 ± 3 mm^3

Q: And the “Tumor volume (Mean ± SEM)” value (Day 20, Group 2: 1 mg/kg qdx28, sc)?
A: 1 ± 0 mm^3
